The values that follow come from ChEMBL document CHEMBL1201862, “PubChem BioAssay data set” (2004).

Some test systems named below: 786-0; A498; ACHN; CAKI-1; EKVX; HCT-116; HT-29; LOX IMVI; Malme-3M; NCI-H522; NCI/ADR-RES; OVCAR-5; RPMI-8226; RXF 393; SK-MEL-2; SK-MEL-5; SK-OV-3; SNB-19; SW-620; UO-31.
Assay in all cases: growth of human tumour cells (NCI), 48 h

Molecules are shown by their SMILES.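 In this assay, cells in 96-well plates receive the compound at five concentrations for 48 hours. Endpoints are linearly interpolated between the surrounding concentrations. Abbreviation: GI50, concentration required for 50% inhibition of growth.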 Activity calls are given as the source filed them. No stated cut-off is given here; in the data, active = GI50 up to about 1.1 µM and inactive = higher.

`NCCNCC1CCNCC1`: the GI50 in the assay with 786-0, in the assay on A498, in the assay on ACHN, with CAKI-1, in the assay on EKVX and with HCT-116 was > 100 µM (inactive) throughout. Moreover, the GI50 in the assay on HT-29, in the assay on LOX IMVI, in the assay with Malme-3M, in the assay with NCI-H522, with NCI/ADR-RES and in the assay on OVCAR-5 was > 100 µM (inactive) each time. For the same compound, the GI50 in the assay with RPMI-8226, in the assay on RXF 393, in the assay on SK-MEL-2, in the assay with SK-MEL-5, with SK-OV-3 and in the assay on SNB-19 was > 100 µM (inactive) throughout. In addition, the GI50 with SW-620 and in the assay with UO-31 was > 100 µM (inactive) throughout.

Turning to `O=C1C=C(NCCc2ccccc2)c2ccccc2C1=O`, the GI50 in the assay on 786-0 was 3.64 µM (inactive); in the assay with A498, 3.71 µM (inactive); with ACHN it was 2.82 µM (inactive); in the assay on CAKI-1, 9.48 µM (inactive); in the assay with EKVX, 5.78 µM (inactive); in the assay with HCT-116, 4.95 µM (inactive). Also, the GI50 in the assay with HT-29 was 3.49 µM (inactive); in the assay on LOX IMVI, 1.43 µM (inactive); in the assay with Malme-3M, 1.06 µM (active); in the assay on NCI-H522, 1.71 µM (inactive); in the assay with NCI/ADR-RES it was 4.11 µM (inactive); in the assay with OVCAR-5, 1.98 µM (inactive). The GI50 is 14.8 µM (inactive) with RPMI-8226; 6.65 µM (inactive) in the assay with RXF 393; 1.91 µM (inactive) in the assay with SK-MEL-2; 1.09 µM (active) with SK-MEL-5; 13.9 µM (inactive) with SK-OV-3; 2.81 µM (inactive) in the assay with SNB-19. The GI50 in the assay with SW-620 is 1.85 µM (inactive); with UO-31, 3.72 µM (inactive).

As to `O=[N+]([O-])c1cc(-c2nc(-c3ccccc3)c(-c3ccccc3)[nH]2)c(O)c([N+](=O)[O-])c1`, the GI50 in the assay on 786-0 was 21.6 µM (inactive); in the assay on A498, 20.8 µM (inactive); in the assay on ACHN, 21.6 µM (inactive); with CAKI-1, 27.4 µM (inactive); in the assay with EKVX, 23.4 µM (inactive); with HCT-116, 17.7 µM (inactive). Besides, the GI50 with HT-29 is 16.8 µM (inactive); in the assay on LOX IMVI, 23.6 µM (inactive); in the assay with Malme-3M, 21.1 µM (inactive); in the assay on NCI-H522, 20.2 µM (inactive); with NCI/ADR-RES, 19.1 µM (inactive); with OVCAR-5, 23.2 µM (inactive). The GI50 with RPMI-8226 is 27 µM (inactive); with RXF 393 it was 17.4 µM (inactive); with SK-MEL-2, 19.9 µM (inactive); in the assay on SK-MEL-5, 17.7 µM (inactive); with SK-OV-3, 20.2 µM (inactive); in the assay on SNB-19, 36.9 µM (inactive). The GI50 in the assay with SW-620 is 27.5 µM (inactive); with UO-31, 18.2 µM (inactive).

As for `Cc1ccc(-c2c(C#N)c(-c3ccc(C)cc3)n(NS(=O)(=O)c3ccccc3)c(=O)c2C#N)cc1`, the GI50 in the assay on 786-0 is 54.1 µM (inactive); in the assay with A498, 51.2 µM (inactive); in the assay on ACHN it was 37.5 µM (inactive); in the assay with CAKI-1, 83.8 µM (inactive); in the assay on EKVX, 56.6 µM (inactive); in the assay with HCT-116 it was 31.1 µM (inactive). Besides, the GI50 is 41.7 µM (inactive) in the assay with HT-29; 35 µM (inactive) with LOX IMVI; 86.5 µM (inactive) in the assay with Malme-3M; 50.1 µM (inactive) with NCI-H522; 50.5 µM (inactive) in the assay on NCI/ADR-RES; > 100 µM (inactive) in the assay on OVCAR-5. Moreover, the GI50 in the assay on RPMI-8226 was 14.7 µM (inactive); in the assay on RXF 393, 35.3 µM (inactive); in the assay with SK-MEL-2 it was 57.4 µM (inactive); in the assay with SK-MEL-5, 16 µM (inactive); with SK-OV-3, 53.8 µM (inactive); with SNB-19 it was 42.1 µM (inactive). In the assay with SW-620, the GI50 is 42.4 µM (inactive).

For `Cc1ccc(C)n1-n1c(Cc2ccc(Cl)cc2)n[nH]c1=O`, the GI50 in the assay on 786-0 was > 100 µM (inactive); in the assay on A498, > 100 µM (inactive); with ACHN it was > 100 µM (inactive); in the assay on CAKI-1 it was 90.6 µM (inactive); in the assay with EKVX, 69.5 µM (inactive); with HCT-116, 53.3 µM (inactive). The GI50 was 73.8 µM (inactive) in the assay on HT-29; 59.4 µM (inactive) in the assay with LOX IMVI; 92.5 µM (inactive) with Malme-3M; 20.9 µM (inactive) with NCI-H522; 40.8 µM (inactive) with NCI/ADR-RES; > 100 µM (inactive) in the assay with OVCAR-5. The GI50 is 33.3 µM (inactive) with RPMI-8226; 59.3 µM (inactive) with RXF 393; 31 µM (inactive) with SK-MEL-2; 51.8 µM (inactive) in the assay on SK-MEL-5; > 100 µM (inactive) in the assay with SK-OV-3; > 100 µM (inactive) in the assay on SNB-19. In addition, the figures for the GI50 in the assay with SW-620 and with UO-31 were > 100 µM (inactive) and 58.7 µM (inactive), respectively.

As to `CCOC(=O)NC(Nc1cccc(C(F)(F)F)c1)(C(F)(F)F)C(F)(F)F`, the GI50 in the assay on 786-0, in the assay with A498, with ACHN, in the assay on CAKI-1, in the assay on EKVX and in the assay with HCT-116 was > 100 µM (inactive) throughout. Besides, the GI50 with HT-29, in the assay with LOX IMVI, in the assay with Malme-3M, in the assay with NCI-H522, in the assay with NCI/ADR-RES and in the assay with OVCAR-5 was > 100 µM (inactive) throughout. Further, the GI50 in the assay on RPMI-8226, with RXF 393, in the assay on SK-MEL-2, with SK-MEL-5, with SK-OV-3 and in the assay with SNB-19 was > 100 µM (inactive) in each case. The GI50 in the assay on SW-620 is > 100 µM (inactive); in the assay on UO-31, 93.8 µM (inactive).

In the case of `Cc1ccc2c(c1)OC1Nc3ccccc3C1=C2O` (stereo unspecified), the GI50 in the assay on 786-0 was 20.1 µM (inactive); with A498, 15.5 µM (inactive); in the assay on ACHN, 21.4 µM (inactive); with CAKI-1, 23.2 µM (inactive); in the assay on EKVX, 17.4 µM (inactive); in the assay with HCT-116 it was 24.8 µM (inactive). The GI50 was 30 µM (inactive) with HT-29; 23.8 µM (inactive) with LOX IMVI; 74.8 µM (inactive) with Malme-3M; 28.7 µM (inactive) in the assay with NCI-H522; 20.9 µM (inactive) in the assay on NCI/ADR-RES; 32.6 µM (inactive) with OVCAR-5. The GI50 is 28 µM (inactive) in the assay with RPMI-8226; 20.5 µM (inactive) in the assay on RXF 393; 16.9 µM (inactive) in the assay with SK-MEL-2; 16.4 µM (inactive) in the assay on SK-MEL-5; 13.9 µM (inactive) in the assay on SK-OV-3; 31.6 µM (inactive) in the assay with SNB-19. The GI50 in the assay with SW-620 was 29.2 µM (inactive); with UO-31, 21.2 µM (inactive).

Consider `N#Cc1[nH]c(=O)n(-c2ccc(Cl)cc2)c1N`, for which the GI50 in the assay on 786-0 was > 10 µM (inactive); in the assay on A498, > 10 µM (inactive); in the assay on ACHN, > 10 µM (inactive); with CAKI-1, 0.00637 µM (active); in the assay with EKVX, > 10 µM (inactive); with HCT-116 it was > 10 µM (inactive). Also, the GI50 in the assay on HT-29 was > 10 µM (inactive); in the assay with LOX IMVI, > 10 µM (inactive); with Malme-3M, 8.79 µM (inactive); in the assay with NCI-H522 it was > 10 µM (inactive); in the assay on NCI/ADR-RES it was > 10 µM (inactive); in the assay on OVCAR-5, > 10 µM (inactive). Besides, the GI50 with RPMI-8226, with RXF 393, with SK-MEL-2, in the assay with SK-MEL-5, in the assay on SK-OV-3 and with SNB-19 was > 10 µM (inactive) each time.

Take `CC(=O)Nc1cc2nc3n(c2cc1C)CCC3OC(C)=O` (stereo unspecified): the GI50 with 786-0, in the assay with A498, in the assay with ACHN, in the assay with CAKI-1, with EKVX and in the assay with HCT-116 was > 100 µM (inactive) in each case. In addition, the GI50 with HT-29, with LOX IMVI, in the assay with Malme-3M, in the assay on NCI-H522, with NCI/ADR-RES and in the assay with OVCAR-5 was > 100 µM (inactive) each time. Moreover, the GI50 in the assay on RPMI-8226, in the assay with RXF 393, in the assay with SK-MEL-2, in the assay with SK-OV-3, in the assay on SNB-19 and with SW-620 was > 100 µM (inactive) in each case. Moreover, in the assay with UO-31, the GI50 was > 100 µM (inactive).

With `N=C(N)NCCCC(=O)O`, the GI50 in the assay with 786-0, in the assay on A498, in the assay on ACHN, in the assay with CAKI-1, in the assay with EKVX and in the assay on HCT-116 was > 100 µM (inactive) each time. Moreover, the GI50 in the assay with HT-29, with LOX IMVI, in the assay with Malme-3M, in the assay on NCI-H522, in the assay on NCI/ADR-RES and in the assay on OVCAR-5 was > 100 µM (inactive) each time. For the same compound, the GI50 in the assay on RPMI-8226, with RXF 393, in the assay with SK-MEL-2, in the assay on SK-MEL-5, with SK-OV-3 and with SNB-19 was > 100 µM (inactive) throughout. The GI50 in the assay on SW-620 and in the assay on UO-31 was > 100 µM (inactive) each time.
